Experimental data published in EP0808172B1, “COMBINATION OF ANGIOTENSIN CONVERTING ENZYME INHIBITOR AND ALDOSTERONE ANTAGONIST FOR THE TREATMENT OF VENTRICULAR HYPERTROPHY” (priority 1995, dated 1996).

Legend:
[1] = tested on: patients with symptomatic heart failure; test: Human clinical trial: hospitalizations and deaths
[2] = tested on: patients with symptomatic heart failure; test: Human clinical trial: neurohormones (urinary aldosterone, plasma renin activity, N-terminal ANF); conditions: 12 week visit, dose response (p = 0.002)
[3] = tested on: patients afflicted with congestive heart failure; conditions: spironolactone 100 mg/day coadministered with an ACE inhibitor; van Vliet et al 1993; cited from earlier work
[4] = tested on: patients with symptomatic heart failure; test: Human clinical trial: weight and vital signs; format: in vivo, humans; conditions: 75 mg dose group, Day 9 and Week 4 visits
Procedure: (§1) Concurrent medication within the past 30 days. • 2. 12-lead ECG • 3. […] Signs and symptoms within the past 30 days.
Patients were evaluated 9 days after beginning study medication.
(§2) All statistical methods were two-sided.

[5] = tested on: patients with symptomatic heart failure; test: Human clinical trial: cardiac assessments (sodium retention score, NYHA class) and changes in patient therapy; format: in vivo, humans; conditions: spironolactone groups vs placebo; difference not statistically significant
Description: as §1, §2

CC(=O)S[C@@H]1CC2=CC(=O)CC[C@]2(C)[C@H]2CC[C@@]3(C)[C@@H](CC[C@@]34CCC(=O)O4)[C@H]12 [Spironolactone, 17-hydroxy-7α-mercapto-3-oxo-17α-pregn-4-ene-21-carboxylic acid γ-lactone acetate]
patients died within 30 days after the study was completed ([1]; previously at the 50 mg dose): Three
Hospitalizations, percent of patients ([1]; spironolactone 12.5 mg): 7.3%
Hospitalizations, percent of patients ([1]; spironolactone 25 mg): 6.6%
Hospitalizations, percent of patients ([1]; spironolactone 50 mg): 27.6%
Hospitalizations, percent of patients ([1]; spironolactone 75 mg): 14.6%
Urinary aldosterone excretion, change from baseline [2]: Greater increases were seen at higher doses of spironolactone
patients in whom the treatment was highly effective [3]: 13 of 16
changes from baseline in body weight [4]: more weight loss than other patients
NYHA Class [5]: trend toward improvement
